Measured values published in ChEMBL document CHEMBL5321272 (J Med Chem, 2023).
Activity calls are given as the source filed them. No cut-off for these calls is given here.

What was measured:
[1] = target: Receptor-type tyrosine-protein kinase FLT3 (Homo sapiens, UniProt P36888); assay: Inhibition of wild type FLT3 (unknown origin) using peptide substrate TK-S and ATP as substrate incubated for 1 hr by HTRF assay
[2] = target: Mast/stem cell growth factor receptor Kit (Homo sapiens, UniProt P10721); assay: Inhibition of c-KIT (unknown origin) using peptide substrate TK-S and ATP as substrate incubated for 1 hr by HTRF assay; assay type: toxicity
[3] = Selectivity ratio of IC50 for inhibition of c-KIT (unknown origin) to IC50 for inhibition of FLT3 D835Y mutant (unknown origin)
BaF3 [4] = assay: Antiproliferative activity against mouse BaF3 cells harboring FLT3 D835V mutant assessed as reduction in cell viability incubated for 72 hrs by CellTiter 96 Aqueous One Solution Cell Proliferation Assay; assay type: functional, cell-based
BaF3 [5] = assay: Antiproliferative activity against mouse BaF3 cells harboring FLT3 D835F mutant assessed as reduction in cell viability incubated for 72 hrs by CellTiter 96 Aqueous One Solution Cell Proliferation Assay; assay type: functional, cell-based
[6] = Half life in ICR mouse at 10 mg/kg, po; assay type: ADME, organism-based; details: in vivo
[7] = Tmax in ICR mouse at 10 mg/kg, po; assay type: ADME, organism-based; details: in vivo
[8] = Cmax in ICR mouse at 10 mg/kg, po; assay type: ADME, organism-based; parameters: dose 10 mg/kg, route po; details: in vivo
[9] = target: Ribosomal protein S6 kinase beta-1 (Homo sapiens, UniProt P23443); assay: Inhibition of P70S6K (unknown origin) by HTRF assay
[10] = target: Casein kinase I isoform alpha (Homo sapiens, UniProt P48729); assay: Inhibition of CK1 alpha (unknown origin) by HTRF assay
[11] = Selectivity ratio of IC50 for EPHA1 (unknown origin) to IC50 for FLT3-ITD mutant (unknown origin)
[12] = Selectivity ratio of IC50 for BLK (unknown origin) to IC50 for FLT3-ITD mutant (unknown origin)
[13] = Selectivity ratio of IC50 for BTK (unknown origin) to IC50 for FLT3-ITD mutant (unknown origin)
[14] = Selectivity ratio of IC50 for Aurora kinase A (unknown origin) to IC50 for FLT3-ITD mutant (unknown origin)
[15] = Selectivity ratio of IC50 for ALK (unknown origin) to IC50 for FLT3-ITD mutant (unknown origin)
[16] = Selectivity ratio of IC50 for IRAK4 (unknown origin) to IC50 for FLT3-ITD mutant (unknown origin)
[17] = Selectivity ratio of IC50 for PAK1 (unknown origin) to IC50 for FLT3-ITD mutant (unknown origin)
Z-138 = assay: Antiproliferative activity against human Z138 cells assessed as reduction in cell viability incubated for 72 hrs by CellTiter 96 Aqueous One Solution Cell Proliferation Assay; assay type: functional, cell-based; details: Z-138, 72 h
[18] = target: T1, Voltage-gated inwardly rectifying potassium channel KCNH2 (Homo sapiens, UniProt Q12809); assay: Inhibition of hERG expressed in HEK293 cells assessed as inhibition of tail current at 1 to 10 uM by whole cell patch clamp analysis; assay type: toxicity, cell-based; details: hek293, 10 µM, dose 1-10 µM
[19] = target: T1, Voltage-gated inwardly rectifying potassium channel KCNH2; assay: Inhibition of hERG expressed in HEK293 cells assessed as inhibition of channel current amplitude by whole cell patch clamp analysis; assay type: toxicity, cell-based
[20] = target: Receptor-type tyrosine-protein kinase FLT3 (Homo sapiens) (UniProt P36888); assay: Inhibition of FLT3 in human MV4-11 cells assessed as inhibition of FLT3 phosphorylation measured after 90 mins by western blot analysis; assay type: cell-based; details: dose 20-100 nM
[21] = target: Receptor-type tyrosine-protein kinase FLT3 (Homo sapiens) (UniProt P36888); assay: Inhibition of FLT3 in human MV4-11 cells assessed as inhibition of STAT5 phosphorylation at Tyr694 residue measured after 90 mins by western blot analysis; assay type: cell-based; details: dose 20-100 nM
[22] = target: Receptor-type tyrosine-protein kinase FLT3 (Homo sapiens) (UniProt P36888); assay: Inhibition of FLT3 in human MV4-11 cells assessed as inhibition of ERK phosphorylation at Tyr204 residue measured after 90 mins by western blot analysis; assay type: cell-based; details: dose 20-100 nM
[23] = target: Receptor-type tyrosine-protein kinase FLT3 (Homo sapiens) (UniProt P36888); assay: Inhibition of FLT3 in human MV4-11 cells assessed as inhibition of FLT3 phosphorylation at 20 nM measured after 90 mins by western blot analysis; assay type: cell-based
[24] = target: T2, Serine/threonine-protein kinase Chk1 (Homo sapiens) (UniProt O14757); assay: Inhibition of CHK1 in human MV4-11 cells assessed as increase in CHK1 phosphorylation at Ser345 residue at 50 to 200 nM measured after 90 mins by western blot analysis; assay type: cell-based; details: dose 50-200 nM
T2 sequence (whole entry): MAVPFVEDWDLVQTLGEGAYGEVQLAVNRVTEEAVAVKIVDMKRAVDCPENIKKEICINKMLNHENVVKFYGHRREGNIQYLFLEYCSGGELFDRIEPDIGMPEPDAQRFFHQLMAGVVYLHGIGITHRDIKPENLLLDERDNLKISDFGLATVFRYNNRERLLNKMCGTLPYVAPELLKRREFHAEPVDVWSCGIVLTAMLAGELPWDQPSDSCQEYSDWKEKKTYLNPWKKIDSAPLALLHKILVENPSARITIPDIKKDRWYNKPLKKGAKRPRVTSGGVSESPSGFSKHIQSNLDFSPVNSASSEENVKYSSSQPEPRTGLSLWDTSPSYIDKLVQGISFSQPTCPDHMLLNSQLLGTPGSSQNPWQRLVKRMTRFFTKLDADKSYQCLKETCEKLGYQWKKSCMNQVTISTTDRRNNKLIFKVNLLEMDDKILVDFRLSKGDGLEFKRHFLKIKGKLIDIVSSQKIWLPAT

MOLM-13 = assay: Antitumor activity against human MOLM-13 cells xenografted in NSG mouse assessed as animal's survival rate at 30 mg/kg, po qd for 26 days (reference value: 17 days); assay type: functional; details: time 26 day
[25] = Toxicity against NSG mouse xenografted with human MOLM-13 cells assessed as body weight loss at 15 to 30 mg/kg, po qd for 26 days; assay type: organism-based; details: in vivo, 624 h, dose 15-30 mg/kg, time 26 day
[26] = Acute toxicity in ICR mouse assessed as body weight loss at 300 mg/kg, ig and measured for 7 days; assay type: organism-based; details: in vivo, po, 168 h, time 7 day
[27] = Acute toxicity in ICR mouse assessed as morphological changes in heart at 300 mg/kg, ig and measured for 7 days by Hematoxylin-Eosin staining based analysis; assay type: organism-based; details: in vivo, po, 168 h, time 7 day
[28] = Acute toxicity in ICR mouse assessed as morphological changes in liver at 300 mg/kg, ig and measured for 7 days by Hematoxylin-Eosin staining based analysis; assay type: organism-based; details: in vivo, po, 168 h, time 7 day
[29] = Acute toxicity in ICR mouse assessed as morphological changes in spleen at 300 mg/kg, ig and measured for 7 days by Hematoxylin-Eosin staining based analysis; assay type: organism-based; details: in vivo, po, 168 h, time 7 day
[30] = Acute toxicity in ICR mouse assessed as morphological changes in kidney at 300 mg/kg, ig and measured for 7 days by Hematoxylin-Eosin staining based analysis; assay type: organism-based; details: in vivo, po, 168 h, time 7 day
[31] = target: Receptor-type tyrosine-protein kinase FLT3 (Homo sapiens, UniProt P36888, D835Y)
Description: Inhibition of FLT3 D835Y mutant (unknown origin) using peptide substrate TK-S and ATP as substrate incubated for 1 hr by HTRF assay

BaF3 [32] = assay: cells; details: Mus musculus, BaF3, 72 h
Description: Antiproliferative activity against mouse BaF3 cells harboring FLT3-ITD-N701K mutation assessed as reduction in cell viability incubated for 72 hrs by CellTiter 96 Aqueous One Solution Cell Proliferation Assay

T1 sequence (Q12809 whole entry): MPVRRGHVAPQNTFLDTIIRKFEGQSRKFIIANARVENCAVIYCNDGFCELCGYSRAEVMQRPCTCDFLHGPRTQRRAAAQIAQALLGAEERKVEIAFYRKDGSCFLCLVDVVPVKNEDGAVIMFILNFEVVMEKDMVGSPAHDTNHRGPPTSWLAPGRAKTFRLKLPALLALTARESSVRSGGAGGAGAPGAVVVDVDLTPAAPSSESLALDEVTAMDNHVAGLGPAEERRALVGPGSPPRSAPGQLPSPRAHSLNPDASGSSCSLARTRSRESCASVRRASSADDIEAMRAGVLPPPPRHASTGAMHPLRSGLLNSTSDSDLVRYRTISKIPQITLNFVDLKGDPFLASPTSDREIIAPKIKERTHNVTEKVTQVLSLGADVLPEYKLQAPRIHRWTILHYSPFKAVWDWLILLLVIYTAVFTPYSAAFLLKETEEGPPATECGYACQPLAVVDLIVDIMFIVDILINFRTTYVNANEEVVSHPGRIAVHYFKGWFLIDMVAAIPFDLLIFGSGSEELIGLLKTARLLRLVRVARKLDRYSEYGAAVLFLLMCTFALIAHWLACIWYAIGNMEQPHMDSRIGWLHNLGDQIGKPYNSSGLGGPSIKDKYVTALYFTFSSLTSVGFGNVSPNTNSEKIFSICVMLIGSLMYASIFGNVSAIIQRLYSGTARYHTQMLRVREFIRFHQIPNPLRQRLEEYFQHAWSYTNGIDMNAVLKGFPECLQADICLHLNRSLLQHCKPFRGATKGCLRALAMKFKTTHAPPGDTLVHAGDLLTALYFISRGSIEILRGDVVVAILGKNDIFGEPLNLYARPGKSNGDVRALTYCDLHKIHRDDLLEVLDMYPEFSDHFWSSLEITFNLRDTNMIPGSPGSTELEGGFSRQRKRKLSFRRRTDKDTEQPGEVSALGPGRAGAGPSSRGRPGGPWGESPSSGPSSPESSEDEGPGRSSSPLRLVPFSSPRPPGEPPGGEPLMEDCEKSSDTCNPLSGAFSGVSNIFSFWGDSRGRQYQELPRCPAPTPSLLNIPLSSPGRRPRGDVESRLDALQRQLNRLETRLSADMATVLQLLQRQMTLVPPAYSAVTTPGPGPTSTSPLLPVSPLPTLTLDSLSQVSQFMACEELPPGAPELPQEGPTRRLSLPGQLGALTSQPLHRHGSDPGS
Mast/stem cell growth factor receptor Kit, sequence (P10721 whole entry): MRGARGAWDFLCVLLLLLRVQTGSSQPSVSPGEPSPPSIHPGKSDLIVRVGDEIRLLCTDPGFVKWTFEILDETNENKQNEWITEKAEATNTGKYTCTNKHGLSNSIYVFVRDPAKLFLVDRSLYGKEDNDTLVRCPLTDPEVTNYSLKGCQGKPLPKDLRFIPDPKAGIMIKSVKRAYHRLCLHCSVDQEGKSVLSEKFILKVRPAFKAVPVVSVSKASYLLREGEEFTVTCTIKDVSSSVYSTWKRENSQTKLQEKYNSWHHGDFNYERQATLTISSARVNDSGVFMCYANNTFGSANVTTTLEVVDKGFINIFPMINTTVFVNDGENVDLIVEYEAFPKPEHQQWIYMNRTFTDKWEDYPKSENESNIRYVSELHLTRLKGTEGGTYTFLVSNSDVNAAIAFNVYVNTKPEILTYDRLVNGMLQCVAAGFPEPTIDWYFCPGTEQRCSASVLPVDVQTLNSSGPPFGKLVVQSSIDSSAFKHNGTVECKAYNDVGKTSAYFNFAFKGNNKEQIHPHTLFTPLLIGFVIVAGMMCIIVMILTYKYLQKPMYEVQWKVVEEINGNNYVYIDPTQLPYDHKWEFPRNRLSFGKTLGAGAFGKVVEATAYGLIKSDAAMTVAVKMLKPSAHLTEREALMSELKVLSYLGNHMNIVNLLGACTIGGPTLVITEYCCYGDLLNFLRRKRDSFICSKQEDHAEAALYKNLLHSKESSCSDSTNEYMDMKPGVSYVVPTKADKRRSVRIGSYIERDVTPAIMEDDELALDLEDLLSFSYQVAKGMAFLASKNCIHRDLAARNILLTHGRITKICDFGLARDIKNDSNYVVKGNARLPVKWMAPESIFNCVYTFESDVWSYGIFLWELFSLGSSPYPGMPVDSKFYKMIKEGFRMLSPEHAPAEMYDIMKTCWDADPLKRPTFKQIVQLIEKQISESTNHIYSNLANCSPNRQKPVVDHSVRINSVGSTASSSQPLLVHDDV
Casein kinase I isoform alpha, sequence (P48729 whole entry, canonical isoform): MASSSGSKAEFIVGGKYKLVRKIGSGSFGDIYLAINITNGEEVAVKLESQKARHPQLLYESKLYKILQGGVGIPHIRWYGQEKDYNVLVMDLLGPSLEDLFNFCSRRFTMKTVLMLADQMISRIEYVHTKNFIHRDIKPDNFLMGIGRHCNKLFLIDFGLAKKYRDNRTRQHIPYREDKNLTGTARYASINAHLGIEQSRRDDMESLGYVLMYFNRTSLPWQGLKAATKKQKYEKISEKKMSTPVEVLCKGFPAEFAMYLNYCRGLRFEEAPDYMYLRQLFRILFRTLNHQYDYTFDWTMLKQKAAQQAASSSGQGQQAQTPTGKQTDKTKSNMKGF
Ribosomal protein S6 kinase beta-1, sequence (P23443 whole entry, canonical isoform): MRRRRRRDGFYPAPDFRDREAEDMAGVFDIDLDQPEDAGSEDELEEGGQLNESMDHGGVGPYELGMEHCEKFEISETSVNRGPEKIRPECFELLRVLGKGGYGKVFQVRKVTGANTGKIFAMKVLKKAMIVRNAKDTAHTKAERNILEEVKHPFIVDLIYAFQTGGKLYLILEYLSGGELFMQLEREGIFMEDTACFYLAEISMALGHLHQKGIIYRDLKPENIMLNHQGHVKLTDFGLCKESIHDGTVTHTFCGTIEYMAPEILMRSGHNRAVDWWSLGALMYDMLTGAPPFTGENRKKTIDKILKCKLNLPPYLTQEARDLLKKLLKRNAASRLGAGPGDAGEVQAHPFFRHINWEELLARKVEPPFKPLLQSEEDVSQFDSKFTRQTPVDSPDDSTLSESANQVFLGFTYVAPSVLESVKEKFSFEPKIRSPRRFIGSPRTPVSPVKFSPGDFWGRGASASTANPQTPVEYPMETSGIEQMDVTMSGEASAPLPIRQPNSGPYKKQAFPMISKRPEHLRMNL

Compound CC(C)(O)CC(=O)N1CCc2cc(Nc3ncc(C(F)(F)F)c(N[C@H]4CC[C@@H](N)CC4)n3)ccc2C1 has an IC50 [1] of less than 10 nM, an IC50 [2] of 1870 nM and a Ratio IC50 [3] of 1740. For the same compound, the Activity (BaF3 [4]) was “Active”, the Activity (BaF3 [5]) was “Active” and the half-life [6] was 5.6 h. The Tmax [7] was 2 h, the Cmax [8] was 571 ng/mL and the IC50 [9] was 91.6 nM. It also gave an IC50 [10] greater than 10000 nM, a Ratio IC50 [11] greater than 100 and a Ratio IC50 [12] greater than 100. The Ratio IC50 [13] was greater than 100, the Ratio IC50 [14] was greater than 100 and the Ratio IC50 [15] was greater than 100. It also gave a Ratio IC50 [16] greater than 100, a Ratio IC50 [17] greater than 100 and an IC50 (Z-138) of 115 nM. The “inhibition (INH)” value [18] was “Not Active”, the IC50 [19] was 58400 nM and the inhibition [20] was “Dose-Dependent Effect”. For the same compound, the inhibition [21] was “Dose-Dependent Effect”, the inhibition [22] was “Dose-Dependent Effect” and the inhibition [23] was 100%. The inhibition [24] was “Active”, the Survival (MOLM-13) was 22 days and the Activity [25] was “Non-Toxic”. The Activity [26] was “Non-Toxic”, the Activity [27] was “Non-Toxic” and the Activity [28] was “Non-Toxic”. For the same compound, the Activity [29] was “Non-Toxic”, the Activity [30] was “Non-Toxic” and the IC50 [31] was 1.08 nM. The IC50 (BaF3 [32]) was 8.2 nM.
